Values of other authors, collected in patent US20120149888A1, “SYNTHESIS OF ARA-2'-O-METHYL-NUCLEOSIDES, CORRESPONDING PHOSPHORAMIDITES AND OLIGONUCLEOTIDES INCORPORATING NOVEL MODIFICATIONS FOR BIOLOGICAL APPLICATION IN THERAPEUCTICS, DIAGNOSTICS, G- TETRAD FORMING OLIGONUCLEOTIDES AND APTAMERS” (priority 2009, published 2012).
Values joined by “and” are separate entries in the source; they are usually repeats but may differ in a detail not shown here. Identical values can stand only once. “Also recorded” adds a separate entry of the source. Like-named read-outs stand apart in the source and are kept apart here.

Tests used:
Ehrlich ascites (ETGR11) = conditions: Thioguanine-resistant Ehrlich ascites (ETGR11)
Ehrlich ascites (EAC-R2) = conditions: 6-Methyl thiopurine ribonucleoside-resistant Ehrlich ascites (EAC-R2)
[1] = in vivo
L1210-ara-C = L1210-ara-C (Mihich et al., 1970)
L1210/CA = conditions: 1β-D-Arabinofuranosylcytosine-resistant L1210/CA
[2] = system: nucleoside carrier-dependent transport; conditions: in vitro
Raji Burkitt's lymphoma = conditions: rat, in vivo
P815/FU = conditions: in vivo
[3] = system: hydroxyurea-, vincristine-, VLB-, TSC-, cortisone- and MGGH-resistant mouse leukemias
[4] = system: equilibrative NBMPR-sensitive nucleoside transporter (es); conditions: growth-inhibitory concentrations
[5] = system: human erythroleukemia cell line (K562)
AKR/r-AzCR = conditions: mouse, in vivo
Raji leukemia = conditions: mouse, in vivo
[6] = system: L1210 line resistant to MGGH; conditions: in vivo
L1210/C95 = conditions: in vivo
[7] = system: seven tumors (three melanomas, one lung adenocarcinoma, one breast cancer, and two osteogenic sarcomas); conditions: maximum tolerated dose, four weekly cycles of daily bolus i.v. injections for 5 days; lung carcinoma and all three malignant melanomas
human cancer xenograft = conditions: in vivo
[8] = system: 13 human cancer cell lines; conditions: for effect of tetrahydrouridine on antiproliferative activity: Cyd deaminase inhibitor
dCyd kinase = dCyd kinase (Homo sapiens, UniProt P27707)
[9] = system: mouse and human tumor cells
[10] = system: Lewis lung carcinoma cells; conditions: in vivo
[11] = system: normal primary prostatic epithelial cells; conditions: concentrations up to 100 nM
[12] = system: bone marrow granulopoietic-macrophage progenitor cells; conditions: granulopoietic-macrophagic progenitor cells
[13] = system: drug-resistant P388 leukemias
[14] = system: P388/CPT45 top1-deficient cells
[15] = system: human TT cell line derived from MTC; conditions: 10, 25 and 50 microg/ml for 24 hours
topoisomerase I (top1) = topoisomerase I (top1) (Homo sapiens, UniProt P11387); conditions: gemcitabine incorporated immediately 3′ from a top1 cleavage site on the nonscissile strand
mouse leukemia L1210 = conditions: L1210 cells
[16] = system: 36 human tumor cell lines
human tumors [17] = conditions: once, 3 times and 5 times weekly for 2 or 4 weeks
[18] = system: 11 human tumor xenografts; conditions: 11 xenografts
human tumors [19] = system: human tumors
[20] = system: human nasopharyngeal KB cells
[21] = system: T-lymphoblasts, B-lymphoblasts
[22] = target: purine nucleoside phosphorylase (PNP) (Homo sapiens, UniProt P00491)
Ehrlich ascites (EAC-R1) = conditions: 6-Mercaptopurine-resistant Ehrlich ascites (EAC-R1)
Ehrlich ascites (ETGR1) = conditions: Thioguanine-resistant Ehrlich ascites (ETGR1)
[23] = polarographically, aprotic conditions, in the presence of alpha-lipoic acid
L1210/MP = conditions: 6-Mercaptopurine-resistant L1210/MP

topoisomerase I (top1), sequence (P11387 whole entry, species assumed): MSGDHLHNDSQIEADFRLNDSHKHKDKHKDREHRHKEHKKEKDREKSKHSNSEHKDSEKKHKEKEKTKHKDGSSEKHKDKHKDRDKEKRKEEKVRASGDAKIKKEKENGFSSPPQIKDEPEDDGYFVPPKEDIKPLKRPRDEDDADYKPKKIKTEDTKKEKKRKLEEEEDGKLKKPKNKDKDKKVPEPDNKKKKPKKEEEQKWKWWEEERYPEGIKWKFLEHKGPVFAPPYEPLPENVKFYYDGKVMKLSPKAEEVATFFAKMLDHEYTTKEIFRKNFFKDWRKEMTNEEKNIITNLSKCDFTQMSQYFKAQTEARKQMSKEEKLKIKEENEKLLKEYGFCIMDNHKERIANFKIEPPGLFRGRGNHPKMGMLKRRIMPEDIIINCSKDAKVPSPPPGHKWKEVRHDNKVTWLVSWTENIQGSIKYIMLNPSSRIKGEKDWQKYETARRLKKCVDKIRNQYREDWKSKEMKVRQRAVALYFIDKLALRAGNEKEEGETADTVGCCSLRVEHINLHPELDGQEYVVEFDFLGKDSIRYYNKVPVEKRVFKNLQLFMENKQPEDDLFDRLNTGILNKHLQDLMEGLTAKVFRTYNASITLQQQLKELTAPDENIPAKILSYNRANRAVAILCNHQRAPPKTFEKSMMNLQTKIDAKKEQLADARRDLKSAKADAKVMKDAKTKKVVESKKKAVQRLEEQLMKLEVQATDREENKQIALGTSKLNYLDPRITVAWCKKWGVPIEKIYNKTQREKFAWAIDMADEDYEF
dCyd kinase, sequence (P27707 whole entry): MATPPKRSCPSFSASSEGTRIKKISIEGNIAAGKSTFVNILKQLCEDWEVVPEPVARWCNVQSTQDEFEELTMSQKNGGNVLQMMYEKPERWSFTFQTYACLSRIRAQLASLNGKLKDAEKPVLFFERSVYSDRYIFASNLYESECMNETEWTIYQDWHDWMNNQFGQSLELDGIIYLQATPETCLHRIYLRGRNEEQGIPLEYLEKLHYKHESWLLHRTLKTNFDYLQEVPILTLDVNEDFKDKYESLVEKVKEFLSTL
purine nucleoside phosphorylase (PNP), sequence (P00491 whole entry, species assumed): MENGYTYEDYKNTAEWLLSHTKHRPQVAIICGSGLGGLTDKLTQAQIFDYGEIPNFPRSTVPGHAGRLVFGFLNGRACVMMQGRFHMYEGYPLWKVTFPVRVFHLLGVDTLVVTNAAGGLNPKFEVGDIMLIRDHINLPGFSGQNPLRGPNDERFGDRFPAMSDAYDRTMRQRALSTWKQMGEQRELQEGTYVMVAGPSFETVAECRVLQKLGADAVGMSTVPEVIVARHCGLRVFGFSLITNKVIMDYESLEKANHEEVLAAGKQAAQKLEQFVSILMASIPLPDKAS

SMILES: Sc1ncnc2nc[nH]c12 [6-Mercaptopurine]
- Response to chemotherapeutic drugs: Cross-resistant (Ehrlich ascites (ETGR11)): 6-Mercaptopurine
- Response to chemotherapeutic drugs: Cross-resistant (Ehrlich ascites (EAC-R2)): 6-Mercaptopurine^b
- Response to chemotherapeutic drugs: Cross-resistant (Ehrlich ascites (EAC-R2); listed as 6-MP): partially cross-resistant

SMILES: COc1nc(N)nc2c1ncn2[C@@H]1O[C@H](CO)[C@@H](O)[C@@H]1O [Nelarabine]
- dose toxicity in the clinical trials [1]: neurotoxicity

SMILES: Nc1nc(N)c2ccc(CNc3ccc(C(=O)N[C@@H](CC(=O)O)C(=O)O)cc3)cc2n1 [Quinaspar]
- Response to chemotherapeutic drugs: collaterally sensitive (Sarcoma 180; 6-Mercaptopurine-resistant Sarcoma 180): Quinaspar

SMILES: CC(C=NNC(=N)N)=NNC(=N)N [MGGH, methylglyoxal bis(guanylhydrazone)]
- Response to chemotherapeutic drugs: Same as parent line (L1210-ara-C): MGGH
- Response to chemotherapeutic drugs: Same as parent line (L1210/CA): MGGH

SMILES: Nc1ccn([C@@H]2O[C@H](CO)[C@@H](O)[C@@H]2O)c(=O)n1 [Ara-C, 1-β-D-Arabinofuranosylcytosine]
- cellular sensitivity in presence of nitrobenzylmercaptopurine riboside and dipyridamol [2]: reduced strongly
- Response to chemotherapeutic drugs: Same as parent line (Sarcoma 180; in vivo): Ara-C
- Response to chemotherapeutic drugs: Same as parent line (L1210/MP(III); mouse, in vivo): retained sensitivity; also recorded: Ara-C
- mean survival time (Raji Burkitt's lymphoma): 13.2 days
- Response to chemotherapeutic drugs: Same as parent line (P815/FU): retained the same sensitivity; also recorded: Ara-C
- activity against drug-resistant mouse leukemias [3]: active
- expression of es [4]: no significant increase
- resistance of K562R to ara-C compared with K562S ([5]; 3H-dThd incorporation, MTT dye reduction and clonogenicity): approximately 15 fold
- ara-CTP accumulated by K562S versus K562R ([5]; 4-h exposure, 10 microM): seven times more
- more ara-C incorporated into DNA by K562S versus K562R ([5]; 4-h exposure, 10 microM): approximately 250%
- Response to chemotherapeutic drugs: Cross-resistant (AKR/r-AzCR): cross-resistant; also recorded: Ara-C
- Response to chemotherapeutic drugs: Cross-resistant (AKR/r-AzCdR; mouse, in vivo): cross-resistant; also recorded: Ara-C
- animals that survived (>80 days) (Raji leukemia): none
- mean survival time (Raji leukemia): 34.2 days
- response of MGGH-resistant L1210 line to the drug [6]: collaterally sensitive
- response of L1210/C95 to the drug (L1210/C95): sensitive

SMILES: CCCCCCCC/C=C/CCCCCCCC(=O)OC[C@H]1O[C@@H](n2ccc(N)nc2=O)[C@@H](O)[C@@H]1O [Compound P-4055]
- cellular sensitivity in presence of nitrobenzylmercaptopurine riboside and dipyridamol [2]: not
- long-time survivors (>70 days) (Raji Burkitt's lymphoma): three of five
- tumor response [7]: partial or complete tumor regression
- animals that survived (>80 days) (Raji leukemia): 8 of 10

SMILES: C=C1[C@H](n2ccc(N)nc2=O)O[C@H](CO)[C@H]1O [DMDC, 2′-deoxy-2′-methylidenecytidine]
- efficacy in tumors with higher levels of Cyd deaminase (human cancer xenograft): highly effective
- efficacy in tumors with lower levels of Cyd deaminase (human cancer xenograft): only slight activity
- suppression of the antiproliferative activity of DMDC by dCyd [8]: up to 150 fold
- effect of tetrahydrouridine on antiproliferative activity [8]: reduced
- VmaxKm for dCyd kinase, lower than that for dCyd (dCyd kinase): 8 fold

SMILES: [C-]#[N+][C@H]1[C@H](O)[C@@H](CO)O[C@H]1n1ccc(N)nc1=O [Compound 8, 2′-Deoxy-2′-isocyano-1-beta-D-arabinofuranosylcytosine]
- cytotoxicity [9]: moderately cytotoxic
- tumor volume inhibition [10]: only moderate tumor volume inhibition

SMILES: Nc1ccn([C@@H]2O[C@H](CO)[C@@H](O)C2(F)F)c(=O)n1 [gemcitabine, 2′,2′difluoro-2′deoxycytidine]
- inhibitory effects in normal primary prostatic epithelial cells [11]: no inhibitory effects
- efficacy in tumors with higher levels of Cyd deaminase (human cancer xenograft): only slightly active
- gemcitabine concentration inhibiting colony formation by two thirds [12]: 9 nM
- cross resistance to gemcitabine ([13]; P388 resistant to 1-beta-D-arabinofuranosylcytosine): cross resistant
- cross resistance to gemcitabine ([13]; P388 resistant to vincristine, cyclophosphamide, melphalan, cisplatin, methotrexate): not cross resistant
- cross resistance to gemcitabine ([13]; multidrug-resistant P388 (resistant to doxorubicin or etoposide)): no cross resistance
- effect of tetrahydrouridine on antiproliferative activity [8]: increased to some extent
- resistance of P388/CPT45 top1-deficient cells to gemcitabine [14]: 5 fold
- influence on proliferative activity of TT cells [15]: concentration-dependent inhibitory influence
- response rate with the drug alone (ovarian cancer; previously treated patients): around 13%
- response rate for the drug alone (ovarian cancer; previously untreated patients with poor prognostic features): 24%
- top1-mediated DNA cleavage (topoisomerase I (top1)): enhanced
- overall response rate (advanced sarcomas; 1250 mg/m(2) i.v. weekly × three, q28 days): 3%
- median time-to progression (advanced sarcomas; in vivo): 2.1 months
- patients who discontinued treatment due to toxicity/refusal (advanced sarcomas; in vivo): 14%
- hematologic toxicities > or = Grade 3, patients (advanced sarcomas; leukopenia and thrombocytopenia): 32%
- dFdC concentration of maximal inhibition of proliferation and colony formation (LNCaP, PC-3 and DU-145; LNCaP, PC-3, DU-145): 30 nM
- gemcitabine concentration inhibiting colony formation by two thirds (LNCaP, PC-3 and DU-145; prostatic tumor cells): about 3.5 nM

SMILES: C#C[C@@]1(O)[C@@H](CO)O[C@@H](n2ccc(N)nc2=O)[C@@H]1O [ECyd, 1-(3-C-ethynyl-beta-D-ribo-pentofuranosyl)cytosine]
- IC50 (mouse leukemia L1210): 0.016 µM
- 1050 values [16]: nanomolar to micromolar range
- antitumor activity (human tumors [17]): strong antitumor activity without serious toxicity
- human tumors with potent inhibition [18]: 9 of 11
- cytotoxicity (human tumors [19]; 24 and 72 h exposures): sufficiently potent cytotoxicity
- cytotoxicity (human tumors [19]; 4 h exposure): fairly potent cytotoxicity
- IC50 [20]: 0.028 µM

SMILES: CC(=NNC(=N)N)c1ccc(NC(=O)Nc2ccc(C(C)=NNC(=N)N)cc2)cc1 [DDUG, 4′,4′-diacetyldipenylurea bis(guanylhydrazone)]
- Response to chemotherapeutic drugs: Cross-resistant (L1210-ara-C): DDUG

SMILES: Nc1nc2c(ncn2[C@@H]2O[C@H](CO)[C@@H](O)[C@@H]2O)c(=O)[nH]1 [araG, N-9-[β-D-Arabinofuranosyl]guanine]
- efficiency in T-lymphoblasts compared to B-lymphoblasts [21]: higher efficiency
- degradation by purine nucleoside phosphorylase (PNP) [22]: relatively resistant

SMILES: CSc1ncnc2c1ncn2[C@@H]1O[C@H](CO)[C@@H](O)[C@H]1O [Compound 6-MeMPR, 6-methyl thio-purine ribonucleoside]
- Response to chemotherapeutic drugs: Same as parent line (L1210/MP(III); 6-Mercaptopurine-resistant L1210/MP(III)): retained sensitivity and 6-MeMPR
- Response to chemotherapeutic drugs: Cross-resistant (Ehrlich ascites (EAC-R1)): partially cross-resistant and 6-MeMPR^b
- Response to chemotherapeutic drugs: Cross-resistant (Ehrlich ascites (ETGR1)): partially cross-resistant and 6-MeMPR^b

SMILES: Nc1ncn([C@@H]2O[C@H](CO)[C@@H](O)[C@H]2O)c(=O)n1 [AzCR, 5-azacytidine]
- index of potential carcinogenicity tg alpha [23]: 0.295
- Response to chemotherapeutic drugs: Same as parent line (AKR/r-AzCdR; 5-Aza-2′-deoxycytidine-resistant AKR-r-AzCdr): sensitive; also recorded: AKR-r-AzCdr AzCR

SMILES: CN(C)/N=N/c1[nH]cnc1C(N)=O [DIC]
- Response to chemotherapeutic drugs: Same as parent line (L1210/MP): DIC
